Test results reported in the supplement of paper PMC10878532, “Sperm Toolbox—A selection of small molecules to study human spermatozoa” (PLOS ONE, 2024).

Assays:
human spermatozoa [1] = assay: acrosome-reacted (PNA+) sperm after agonist cocktail, percent change vs DMSO (capacitating); higher = more of the measured sperm population than DMSO, for viability, fewer PI-positive (dead) cells than DMSO; conditions: incubation time: 3h, capacitating + agonist cocktail 1h
human spermatozoa [2] = assay: progressively motile sperm, percent change vs DMSO (capacitating); higher = more of the measured sperm population than DMSO, for viability, fewer PI-positive (dead) cells than DMSO; conditions: incubation time: 30min incubation
HeLa [3] = assay: Cell Painting percent induction (share of features beyond 2 z-scores vs DMSO); higher = more features changed / larger toxic effect; extreme values may be limits of the assay; conditions: incubation time: 24h incubation
human spermatozoa [4] = assay: progressively motile sperm, percent change vs DMSO (non-capacitating); higher = more of the measured sperm population than DMSO, for viability, fewer PI-positive (dead) cells than DMSO; extreme values may be limits of the assay
human spermatozoa [5] = assay: change in acrosome-reacted (PNA+) sperm vs DMSO, no agonist (capacitating); higher = more of the measured sperm population than DMSO, for viability, fewer PI-positive (dead) cells than DMSO; conditions: incubation time: 3h
HepG2 = HepG2 toxicity (resazurin), effect normalised to DMSO (DMSO = 0); higher = more features changed / larger toxic effect; conditions: incubation time: 70h incubation
HeLa [6] = assay: HeLa toxicity: nuclei-count effect normalised to DMSO (DMSO = 0); higher = more features changed / larger toxic effect; conditions: incubation time: 24h incubation
human spermatozoa [7] = assay: total motile sperm, percent change vs DMSO (non-capacitating); higher = more of the measured sperm population than DMSO, for viability, fewer PI-positive (dead) cells than DMSO
human spermatozoa [8] = assay: hyperactivated motile sperm, percent change vs DMSO (capacitating); higher = more of the measured sperm population than DMSO, for viability, fewer PI-positive (dead) cells than DMSO; conditions: incubation time: 30min incubation
human spermatozoa [9] = assay: viability fold change, 1 - (PI-positive fraction / DMSO median); higher = more of the measured sperm population than DMSO, for viability, fewer PI-positive (dead) cells than DMSO; conditions: incubation time: 3h, non-capacitating
[10] = incubation time: 10min incubation, 9.99 µM
[11] = incubation time: 10min incubation, 29.9 µM
[12] = incubation time: 3h incubation, 9.99 µM
[13] = incubation time: 3h incubation, 29.9 µM
[14] = incubation time: 6h incubation, 9.99 µM
[15] = incubation time: 6h incubation, 29.9 µM
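Wherever progressively motile sperm, percent change vs DMSO (non-capacitating) is given: pooled live human sperm from at least 3 donors, tracked by automated microscopy in 0.5 s time-lapse movies, compounds at 10 and 30 µM, versus median of 16 DMSO wells per plate.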
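Wherever total motile sperm, percent change vs DMSO (non-capacitating) is given: sperm pooled from at least 3 donors, tracked in 0.5 s time-lapse movies by automated microscopy after 10 min, 3 h or 6 h with compound at 10 or 30 µM.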

Row | SMILES | acrosome-reacted (human spermatozoa [1]; 9.99 µM) [%] | acrosome-reacted (human spermatozoa [1]; 29.9 µM) [%] | progressively motile sperm (human spermatozoa [2]; 9.99 µM) [%] | progressively motile sperm (human spermatozoa [2]; 29.9 µM) [%] | Cell Painting percent induction (HeLa [3]; 9.99 µM) [%] | Cell Painting percent induction (HeLa [3]; 29.9 µM) [%] | progressively motile sperm (human spermatozoa [4]; [10]) [%] | progressively motile sperm (human spermatozoa [4]; [11]) [%] | progressively motile sperm (human spermatozoa [4]; [12]) [%] | progressively motile sperm (human spermatozoa [4]; [13]) [%] | progressively motile sperm (human spermatozoa [4]; [14]) [%] | progressively motile sperm (human spermatozoa [4]; [15]) [%] | change in acrosome-reacted (human spermatozoa [5]; 9.99 µM) [%] | change in acrosome-reacted (human spermatozoa [5]; 29.9 µM) [%] | HepG2 toxicity (HepG2; 10 µM) [%] | HepG2 toxicity (HepG2; 30 µM) [%] | HeLa toxicity: nuclei-count effect normalised (HeLa [6]; 9.99 µM) [%] | HeLa toxicity: nuclei-count effect normalised (HeLa [6]; 29.9 µM) [%] | total motile sperm (human spermatozoa [7]; [10]) [%] | total motile sperm (human spermatozoa [7]; [11]) [%] | total motile sperm (human spermatozoa [7]; [12]) [%] | total motile sperm (human spermatozoa [7]; [13]) [%] | total motile sperm (human spermatozoa [7]; [14]) [%] | total motile sperm (human spermatozoa [7]; [15]) [%] | hyperactivated motile sperm (human spermatozoa [8]; 9.99 µM) [%] | hyperactivated motile sperm (human spermatozoa [8]; 29.9 µM) [%] | viability fold change (human spermatozoa [9]; 9.99 µM) | viability fold change (human spermatozoa [9]; 29.9 µM)
1 | O=C(O)c1ccc(/C=C2/SC(=S)N(c3cccc(C(F)(F)F)c3)C2=O)cc1 [CTFRinh-172] | 2.51 | 5.75 | -6.92 | -8.59 | 1.51 | 2.67 | 3.85 | -3.67 | 4.25 | 3.7 | -2.41 | 3.06 | 0.257 | -0.529 | 10.5 | -1.68 | 0.134 | 4.28 | -0.0195 | 0.898 | 0.0108 | -0.0432 | -7.63 | -1.41 | -0.45 | -19.9 | -0.401 | -0.284
2 | O=C(c1cccs1)c1no[n+]([O-])c1C(=O)c1cccs1 | -24.1 | -23.9 | 0.304 | -15.7 | 0.216 | 14.3 | -17 | -39.6 | -29.1 | -78.3 | -50.4 | -91.5 | 1.47 | 2.4 | 103 | 103 | 36.5 | 82 | 1.03 | 2.49 | -13.1 | -40.1 | -30.5 | -54.9 | -32.4 | -81.3 | -0.427 | -1.21
3 | COc1ccc(CCCN2CCC(COC(c3ccccc3)c3ccccc3)CC2)cc1 | 4.02 | 18.6 | -2.66 | -7.92 | 0 | 10.8 | 1.8 | -4.83 | 20 | -8.53 | 32.7 | -19.4 | 1.43 | 2.85 | 1.6 | 103 | 11.7 | 80.9 | -0.81 | 2.28 | 0.77 | -5.61 | -0.213 | -15.3 | -18.3 | -70.2 | -1.38 | -1.52
4 | Oc1c(Cl)cc(Cl)c(Cl)c1Cc1c(O)c(Cl)cc(Cl)c1Cl [Hexachlorophene] | -9.07 | -13.3 | -5.64 | -8.81 | 0 | 0.18 | -23.5 | -48.4 | -39.7 | -63.9 | -37.2 | -61.3 | 0.634 | 0.899 | 56.3 | 74.5 | 14 | 33.9 | -1.87 | -5.83 | -1.02 | -8.13 | -1.96 | -7.29 | -24.4 | -58.1 | -0.213 | 0.344
5 | Nc1ncnc2c1c(-c1cccc(OCc3ccccc3)c1)cn2[C@H]1C[C@@H](CN2CCC2)C1 [NVP-AEW541] | 10.6 | 31.6 | 1.09 | 5.49 | 8.93 | 57.6 | 6.28 | 11.5 | 31.9 | 34.1 | 48.5 | 31.5 | 0.03 | 0.662 | 82.9 | 103 | 27.7 | 99.5 | -0.708 | -2.42 | 2.29 | -8.07 | -0.444 | -10.1 | 16.7 | -13.9 | -0.326 | -0.581
6 | O.O.O.OO.OO.[K+].[OH-].[V].c1cnc2c(c1)ccc1cccnc12 [bpV(phen)] | 16.4 | 21 | 3.97 | 14.8 | 0.793 | 2.7 | 6.92 | 8.6 | -1.94 | -6.75 | 3.08 | -21.9 | 1.06 | 1.79 | 28.8 |  | 34.3 | 34.7 | 1.25 | 3.48 | -3.57 | -2.96 | -4.6 | -7.01 | 17.7 | 12.9 | -0.0835 | -0.163
7 | Cn1c(=O)c2c(-c3ccccc3)n3c(c2n(C)c1=O)[C@H](c1ccc(Br)o1)Oc1ccc(C(=O)O)cc1-3 [BPO-27] | 6.48 | 12.2 | -0.551 | -1.51 | 0.901 | 0 | 4.77 | 14.7 | 32.6 | 41.5 | 37.8 | 42.7 | 0.114 | -0.202 | 6.74 | -5.25 | -5.61 | -3.14 | -0.595 | -2.15 | 1.67 | -2.1 | 2.71 | -8.78 | 26.2 | 0.866 | -0.786 | -0.502
8 | COc1cc(SC)ccc1C(=O)N1CCC(Cc2ccccc2)CC1 [JX 401] | 15 | 16.2 | 4.17 | 3.66 | 0.036 | 0 | 2.94 | -4.03 | 10.9 | 7.53 | 13.8 | 14.6 | 0.294 | 1.59 | 9.25 | -2.23 | 4.01 | 2.67 | 3.2 | -0.475 | 1.22 | -0.09 | 0.862 | -0.188 | 19.2 | 24.9 | -1.82 | -1.65
9 | [O-][S+](c1ccccc1)c1ccc2nnnn2n1 (stereo unspecified) [Ro 106-9920] | 149 | 142 | -9.75 | -78.3 | 0.684 | 42.4 | -34.9 | -68.2 | -100 | -99.9 | -100 | -100 | 8.05 | 18.3 | 103 | 103 | 43.7 | 96.9 | -8.15 | -30.9 | -92.3 | -89.9 | -92.2 | -89.8 | -3.35 | -67.1 | -0.184 | -0.13
